Patent US12297197B2, “Pyrazolopyridine compound as RET inhibitor and application thereof” (GUANGZHOU BAIYUNSHAN PHARMACEUTICAL HOLDINGS CO., LTD. …, priority 2019, dated 2025)

Columns and labels:
[1] = Pharmacokinetic evaluation in mice (IV and PO); type: in vivo; details: mouse, plasma, female Balb/c mice; for bioavailability: peros (PO) 2 mg/kg vs IV 0.2 mg/kg, read-out: F (bioavailability)
Procedure: Experiment process: 0.1 mg/ml of the clear solution of each test compound in the corresponding solvents (as shown in Table 9) was injected into female Balb/c mice (fasting overnight. 7-9 weeks old) via the tail vein at a dose of […]. Blood samples ([…]) were collected from the jugular vein or the tail vein at the following time points: 0.0833 hour, 0.25 hour, 0.5 hour, 1.0 hour, 2.0 hours, 4.0 hours. 8.0 hours and 24 hours after intravenous administration. 0.2 mg/ml of the test compounds suspended in the corresponding solvents (as shown in Table 9) were given to the female Balb/c mice (fasting overnight. 7-9 weeks old) by gavage at a dose of 2 mg/kg. Blood samples (30 μL) were collected from the jugular vein or the tail vein of the female Balb/c mice at the following time points: 0.0833 hour, 0.25 hour, 0.5 hour, 1.0 hour, 2.0 hours, 4.0 hours, 6.0 hours, 8.0 hours and 24 hours after oral administration. The blood samples were placed in anticoagulant tubes containing EDTA-K2, and centrifuged to separate plasma. The plasma concentration was determined by LC-MS/MS, and a WinNonlin™ Version 6.3 pharmacokinetic software (Pharsight, Mountain View, CA) was used to calculate related pharmacokinetic parameters by a linear-log trapezoidal method in a non-compartmental model. [table]

[2] = test system: Ba/F3-CCDC6-RET cell allograft tumor model; assay: Tumor growth inhibition (TGI) in Ba/F3-CCDC6-RET cell allograft tumor model; type: in vivo, BALB/c nude female mouse
Procedure: Ba/F3-CCDC6-RET cell line was cultured in a 1640 medium (Biological Industries)+10% fetal bovine serum (BI)+1% Penicillin Streptomycin solution (Coring, USA) at 37° C. in a 5% CO2 incubator, with passage treatment twice a week Cells were collected when the cell saturation was 80%-90%, subjected to cell counting, and then inoculated subcutaneously into the right armpit of each BALB/c nude female mouse (6-8 weeks old). After inoculation, tumor growth was observed day by day. When the average tumor volume reached 165.77 mm^3, mice were randomly divided into groups according to the tumor volume, with 6 mice in each group, and then the mice were administrated with drug.
Health status and death situation of the mice were checked every day. In addition, the mice were examined regularly, including tumor growth, activity ability, diet, weight, eyes, hair and other abnormal behaviors, and tumor volume and weight were measured twice a week (on Tuesday and Friday).
Inhibitory effects of the compounds on tumor growth were evaluated according to the relationship between tumor volume and time. The tumor volume was measured by a vernier caliper, with the formula being TV=0.5a×b^2, wherein “a” was the long diameter of the tumor and “b” was the short diameter of the tumor. TGI was calculated by the difference between the median tumor volume of mice in the solvent group and the median tumor volume of mice in the drug group, and expressed as the percentage of median tumor volume in the solvent control group.
TGI was calculated by the following formula: TGI(TGI(%)=[1−(T23−T0)/(V23−V0)]×100)
Data were expressed by Means±Standard Error (Mean±SE), unless otherwise stated. The one way ANOVA test was used to compare whether the difference between the tumor volume in the treatment group and the tumor volume in the control group is statistically significant. P<0.05 was considered as statistically significant. The 5% DMSO+10% polyoxyl 15 hydroxystearate (Solutol)+85% 120 was used as the negative control.

RET (V804M) kinase = RET (V804M) kinase (Homo sapiens, UniProt P07949, V804M); assay: In-vitro enzyme activity test, RET (V804M) kinase; type: biochemical; details: ATP 30 μM; 10 concentrations 3 μM to 0.152 nM
Procedure: (§1) The enzyme activity was detected by a Z′-LYTE™ kinase test, and inhibitory effects of the compounds onRET and RET (V804M) kinases were evaluated with an ICs value of each compound as an index.
(§2) The compounds used for RET and RET (V804M) kinase tests were diluted 3-fold, in 10 concentration gradients ranging from 3 μM to 0.152 nM; and the content of DMSO in detection reaction was 1%.
(§3) Basic reaction buffer, 20 mM 4-(2-hydroxyethyl)piperazine-1-ethanesulfonic acid (Hepes) buffer (pH 7.5), 10 mM MgCl2. 1 mM 1,2-bis[2-[bis(carboxymethyl)amino]ethoxy]ethane (EGTA), 0.02% polyoxyethylene lauryl ether (Brij35), 0.02 mg/mL bovine serum albumin, 0.1 mM of Na3VO4, 2 mM dithiothreitol (DTT) and 1% DMSO.
(§4) The compounds to be tested were dissolved in a 100% DMSO system to be diluted to 10 mM for further use. The solution was diluted by using Integra Viaflo Assist.
(§5) Test conditions: concentrations of RET kinase, peptide substrate CHKtide and adenosine triphosphate (ATP) were […], 1000 μM and 20 μM, respectively, and concentrations of RET (V804M) kinase, substrate peptide and ATP were […], 1000 μM and 30 μM, respectively.
(§6) Reaction process: compound solutions of different concentrations were added to a kinase/peptide solution prepared according to the test conditions, the obtained solution was incubated at room temperature for 20 minutes, and then 33P-ATP of corresponding concentrations were added, and the obtained solution was incubated at room temperature for 120 minutes. The radioactivity was detected by a filter-binding method.
(§7) The reaction was terminated by adding phosphoric acid (concentration, 0.5%) into a kinase reaction solution, and plate reading was carried out with an Envision instrument.
(§8) Data were converted into phosphorylation rate and inhibition rate, and the parametric curve was fitted by using GraphPad Software to obtain IC50 data of the compounds.

RET kinase = RET kinase (Homo sapiens, UniProt P07949); assay: In-vitro enzyme activity test, RET kinase; type: biochemical; details: ATP 20 μM; 10 concentrations 3 μM to 0.152 nM
Procedure: as §1, §2, §3, §4, §5, §6, §7, §8

[3] = 10 mg/kg (D0-D13)/5 mg/kg (D14-D17)/2,5 mg/kg (D18-D28) BID

RET kinase, sequence (P07949 29-1114): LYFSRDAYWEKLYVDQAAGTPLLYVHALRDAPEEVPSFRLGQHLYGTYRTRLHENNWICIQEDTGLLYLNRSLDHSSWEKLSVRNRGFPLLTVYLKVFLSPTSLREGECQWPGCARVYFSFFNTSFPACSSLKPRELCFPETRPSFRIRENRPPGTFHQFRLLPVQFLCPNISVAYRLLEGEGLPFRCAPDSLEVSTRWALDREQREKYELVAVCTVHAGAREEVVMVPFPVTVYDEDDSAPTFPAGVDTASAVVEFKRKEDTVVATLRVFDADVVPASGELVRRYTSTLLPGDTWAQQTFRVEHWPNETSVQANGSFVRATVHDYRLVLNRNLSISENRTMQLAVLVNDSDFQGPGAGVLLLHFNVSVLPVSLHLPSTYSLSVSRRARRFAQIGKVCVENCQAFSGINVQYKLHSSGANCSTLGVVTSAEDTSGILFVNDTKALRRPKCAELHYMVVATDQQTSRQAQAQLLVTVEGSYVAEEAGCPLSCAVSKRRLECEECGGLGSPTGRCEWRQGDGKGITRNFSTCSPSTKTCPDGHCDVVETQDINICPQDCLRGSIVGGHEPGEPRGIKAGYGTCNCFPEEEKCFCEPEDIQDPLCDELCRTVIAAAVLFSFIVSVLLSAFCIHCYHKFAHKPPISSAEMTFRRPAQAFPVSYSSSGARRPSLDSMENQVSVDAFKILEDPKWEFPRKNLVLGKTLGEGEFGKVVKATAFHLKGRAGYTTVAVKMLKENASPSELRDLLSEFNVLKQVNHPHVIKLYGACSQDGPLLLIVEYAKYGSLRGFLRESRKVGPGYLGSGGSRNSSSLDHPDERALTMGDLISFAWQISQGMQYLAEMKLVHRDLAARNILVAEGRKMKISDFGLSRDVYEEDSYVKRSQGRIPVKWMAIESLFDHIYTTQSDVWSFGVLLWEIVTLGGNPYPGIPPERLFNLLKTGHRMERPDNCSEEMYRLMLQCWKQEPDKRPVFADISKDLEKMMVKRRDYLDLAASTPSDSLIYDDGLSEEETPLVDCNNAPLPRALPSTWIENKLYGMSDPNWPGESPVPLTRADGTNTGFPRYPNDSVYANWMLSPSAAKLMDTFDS
RET (V804M) kinase, sequence (P07949 29-1114 V804M): as the sequence (P07949 29-1114) above, with V776M counted along it

Structure (SMILES) | bioavailability [1] [%] | TGI% (tumor volume at Day 23 after drug administration) [2, 3] [%] | IC50 (RET (V804M) kinase) [nM] | AUC(0-t) ([1]; intravenous injection (IV) 0.2 mg/kg) [µM·h] | clearance ([1]; intravenous injection (IV) 0.2 mg/kg, read-out: Cl (plasma clearance)) [mL/min/kg] | half-life ([1]; intravenous injection (IV) 0.2 mg/kg, read-out: T1/2 (half-life of elimination) (converted)) [h] | Vd ([1]; intravenous injection (IV) 0.2 mg/kg, read-out: Vdds (volume of distribution at steady state)) [L/kg] | AUC(0-t) ([1]; peros (PO) 2 mg/kg) [µM·h] | Cmax ([1]; peros (PO) 2 mg/kg) [µM] | Tmax ([1]; peros (PO) 2 mg/kg) [h] | IC50 (RET kinase) [nM] | TGI% (tumor volume at Day 23 after drug administration) ([2]; 10 mg/kg (D0-D17)/5 mg/kg (D18-D28) QD) [%]
COc1ccc(CN2C3CC2CN(c2cnc(-c4cc(C5=CCOCC5)cn5ncc(C#N)c45)cn2)C3)cn1 [Trifluoroacetate of compound 30] | 96.4 | 98 | – | – | – | – | – | – | – | – | – | –
COc1ccc(CN2C3CC2CN(c2ccc(-c4cc(N5CCC(F)(F)C5)cn5ncc(C#N)c45)cn2)C3)cn1 [Trifluoroacetate of compound 69] | 74.7 | 99 | 1.57 | 3.87 | 1.3 | 3.6 | 0.42 | 29.6 | 3.63 | 4 | 1.44 | –
COc1ccc(CN2C3CC2CN(c2ccc(-c4cc(N5CCN(C)CC5)cn5ncc(C#N)c45)cn2)C3)cn1 [Trifluoroacetate of compound 18] | – | – | – | – | – | – | – | – | – | – | 0.46 | 91
